Active and inactive are the calls of the source. No cut-off for these calls is given here.
Legend:
[1] = test system: PANC-1; experiment: Antiproliferative activity against human PANC-1 cells assessed as inhibition of cell growth incubated for 72 hrs by MTT assay; assay type: functional, cell-based; details: PANC-1, 72 h
[2] = test system: PANC-1; experiment: Antiproliferative activity against human PANC-1 cells assessed as inhibition of cell growth at 20 to 100 uM incubated for 72 hrs by MTT assay; assay type: functional, cell-based; details: dose 20-100 µM

## COC(=O)[C@H](NC(=O)[C@H](OC(=O)[C@@H](NC(=O)[C@H](C)OC(=O)[C@H](NC(=O)[C@H](OC(=O)[C@@H](NC(=O)[C@H](C)OC(=O)[C@H](NC(=O)[C@H](OC(=O)[C@@H](NC(=O)[C@H](C)O)C(C)C)C(C)C)C(C)C)C(C)C)C(C)C)C(C)C)C(C)C)C(C)C)C(C)C
[1]
  IC50: 1700 nM

## CC(C)[C@H](NC(=O)[C@H](C)O)C(=O)O[C@@H](C(=O)N[C@@H](C(=O)O[C@@H](C)C(=O)N[C@H](C(=O)O[C@@H](C(=O)N[C@@H](C(=O)O[C@@H](C)C(=O)N[C@H](C(=O)O[C@@H](C(=O)N[C@@H](C(=O)O)C(C)C)C(C)C)C(C)C)C(C)C)C(C)C)C(C)C)C(C)C)C(C)C
[1]
  IC50: 1200 nM

## CC(C)[C@H](NC(=O)[C@H](C)OC(=O)[C@H](NC(=O)[C@H](OC(=O)[C@@H](NC(=O)[C@H](C)OC(=O)[C@H](NC(=O)[C@H](OC(=O)[C@@H](NC(=O)[C@H](C)O)C(C)C)C(C)C)C(C)C)C(C)C)C(C)C)C(C)C)C(=O)O
[2]
  Activity: inactive

## CC(C)[C@H](NC(=O)[C@H](C)OC(=O)[C@H](NC(=O)[C@H](OC(=O)[C@@H](NC(=O)[C@H](C)OC(=O)[C@H](NC(=O)[C@H](OC(=O)[C@@H](NC(=O)[C@H](C)OC(=O)[C@@H](NC(=O)[C@H](C)O)C(C)C)C(C)C)C(C)C)C(C)C)C(C)C)C(C)C)C(C)C)C(=O)O
[2]
  Activity: inactive
